The values that follow are results of earlier work, collected in patent publication US5922837A, “Antiprotozoal cyclic tetrapeptides” (Merck & Co., Inc., priority 1997, dated 1999).

In series [1] the test system is murine erythroleukemia cells.
Series [2] concerns partially purified yeast histone deacetylase.
Series [3] concerns trichomonal.
Series [4] has as its system sis-transformed fibroblast cells.
Series [5] has as its system mammalian histone deacetylase.
For series [6], the system named is v-sis-transformed NIH3T3 cells.

Turning to `CC(/C=C/C(=O)NO)=C\[C@@H](C)C(=O)c1ccc(N(C)C)cc1` [trichostatin A], in series [1], the cell differentiating activity entry is “cell differentiating activity”. For the same compound, the “inhibition of partially purified yeast histone deacetylase” value in series [2] is “inhibit”. In addition, the anti-trichomonal activity entry in series [3] is recorded as “anti-trichomonal activity”. For the same compound, the “induction of phenotypic reversion” value in series [4] was “ability to induce phenotypic reversion”. Further, the “type of inhibition of mammalian histone deacetylase” value in series [5] is “reversible”.
Turning to trapoxin A, the morphological reversion entry in series [6] was “induces morphological reversion”. For the same compound, in series [5], the “type of inhibition of mammalian histone deacetylase” value is given as “irreversible”.
